Reference: patent US20080031866A1, “METHOD FOR MODULATING THE PHARMACOKINETICS AND METABOLISM OF A THERAPEUTIC AGENT” (priority 2006, published 2008)

Columns and labels:
[1] = Intraduodenal dosing with and without β-glucuronidase, catheterized rat; format: in vivo; conditions: for Increase in AUC with β-glucuronidase: with vs no enzyme; for AUC / Cmax / concentration at 0 h / concentration at 0.25 h / concentration at 0.5 h / concentration at 1 h / concentration at 2 h / concentration at 3 h / concentration at 4 h / concentration at 5 h / concentration at 6 h / AUC average ± standard deviation 0 to 6 hours / Cmax average ± standard deviation: 10 mg/kg, rats N=6; for AUC: read-out: AUC average ± standard deviation 0 to 6 hours; for Cmax: read-out: Cmax average ± standard deviation; for concentration at 0 h / concentration at 0.25 h / concentration at 0.5 h / concentration at 1 h / concentration at 2 h / concentration at 3 h / concentration at 4 h / concentration at 5 h / concentration at 6 h: other: intraduodenal
Method: (§1) A catheterized rat model was used in which the agent alone or agent and β-glucuronidase enzyme was administered intraduodenally or intracolonically. The intraduodenal and intracolonic dosing was intended to prevent the potential for loss of enzymatic activity when orally dosing the β-glucuronidase (e.g. by degradation in the stomach). […]
(§2) For the oral gavage dosing, Compound 1 was prepared in neat PEG-400. For the intraduodenal and intracolonic dosing solutions, Compound 1 was added to neat Tween 80, the mixture was sonicated for thirty minutes at 45° C. until Compound 1 was completely dissolved and then deionized (DI) water was added to form a solution consisting of 20% Tween 80 and 80% DI water by weight.
(§3) For the oral enzyme solutions, β-glucuronidase was added to the final formulation at a concentration of 57,600 units/ml.
(§4) For the intraduodenal and intracolonic dosing, male Sprague Dawley rats weighing 300-400 g were purchased from Charles River Labs. All rat experiments were conducted under approved animal protocols. The rats were catheterized at Charles River Labs and had one or more of the following chronic catheters for dosing and sampling: jugular/carotid, duodenal, and colonic. Rats were limited to only one GI catheter and one vascular catheter. For IV dosing, rats were purchased with jugular and carotid catheters for dosing in the jugular catheter and blood sampling through the carotid catheter. For intraduodenal/intracolonic dosing, rats had one of the GI catheters for dosing and a carotid catheter for blood sampling.
(§5) The surgeries were done two weeks prior to start of testing. Rats were fed 4 hours post dose administration. All rats were dosed without anesthesia and sacrificed at the end of the study.
(§6) A quantitative method for determining the amount of (6,7-dimethoxy-2,4-dihydro-indeno[1,2-c]pyrazol-3-yl)-(3-fluoro-phenyl)-amine Compound 1 and its major metabolites, glucuronide A (Cpd 1-GluA) and glucuronide B (Cpd 1-GluB) (see Scheme A) in rat plasma was developed using phenacetin as an internal standard. [drawing 1]
(§7) The two glucuronide conjugates were prepared and purified to permit accurate quantification of the levels of intact parent Compound 1 versus Cpd 1-GluA and Cpd 1-GluB. Each standard curve for Compound 1, Cpd 1-GluA, and Cpd 1-GluB generated from rat plasma included ten concentration levels. […] The quantitative procedure for each sample included: sample preparation, HPLC separation and mass spectrometry detection.
(§8) The rat plasma was prepared using protein precipitation techniques. Reference standards and quality control samples in rat plasma for Compound 1 were transferred to a 96 deep-well plate. The precipitation solution contained 100 ng/ml of internal standard in acetonitrile. 300 μl of precipitation solution were added to 100 μl of each standard, quality control and plasma sample. Samples were vortexed for 10 mins, then centrifuged at 4500 RPM for 10 mins. 10 μl of each sample were injected for LC/MS/MS analysis.
(§9) The HPLC column chosen for the bioanalysis was purchased from Thermo Electron (Hypersil BetaBasic C18, 5 cm×2.1 mm). The eluting solvents were composed of Solvent A: 0.1% formic acid in H2O and Solvent B: 0.1% formic acid in acetonitrile. A step gradient was used and flow rate was 300 μl/min. The total run time was 3.2 mins. Solvent B was increased from 35% at 0 min to 75% at 2.1 mins and decreased back to 35% at 2.2 mins. The retention times for Compound 1, phenacetin, Cpd 1-GluA and Cpd 1-GluB were 1.1 min, 0.9 min, 1.3 min, and 1.6 min, respectively.
(§10) API3000 with a Turbo Ionspray interface from Applied Biosystems was used for the detection of Compound 1, the internal standard and major metabolites. Electrospray ionization was performed in the positive ion mode heated nebulizer with a temperature of 300° C. LC/MS/MS chromatograms were acquired in MRM (multiple reaction mode). […]

[2] = Intracolonic dosing with and without β-glucuronidase, catheterized rat; format: in vivo; conditions: male, Sprague Dawley, rat, plasma, 10 mg/kg; for Cmax: read-out: Cmax average ± standard deviation; for concentration at 0 h / concentration at 0.25 h / concentration at 0.5 h / concentration at 1 h / concentration at 2 h / concentration at 3 h / concentration at 4 h / concentration at 5 h / concentration at 6 h: other: intracolonic
Method: as §1, §2, §3, §4, §5, §6, §7, §8, §9, §10

[3] = male, Sprague Dawley, rat, plasma, Compound 1 10 mg/kg intraduodenal with β-glucuronidase
[4] = male, Sprague Dawley, rat, plasma, Compound 1 10 mg/kg intraduodenal without enzyme
[5] = Compound 1 10 mg/kg intraduodenal with β-glucuronidase
[6] = Compound 1 10 mg/kg intraduodenal without enzyme
[7] = rats N=6, Compound 1 10 mg/kg intracolonic with β-glucuronidase
[8] = rats N=6, Compound 1 10 mg/kg intracolonic without enzyme

Increase in AUC with β-glucuronidase ([1]; intraduodenal 10 mg/kg): 2.9 fold
Increase in AUC with β-glucuronidase ([1]; intraduodenal): 294%
AUC [1, 3]: 0.177 ± 0.055 µg·h/mL
Cmax [1, 3]: 0.129 ± 0.041 µg/mL
AUC [1, 4]: 0.06 ± 0.018 µg·h/mL
Cmax [1, 4]: 0.075 ± 0.03 µg/mL
concentration at 0 h [1, 3]: 0 µg/mL
concentration at 0.25 h [1, 3]: 0.129 ± 0.0414 µg/mL
concentration at 0.5 h [1, 3]: 0.107 ± 0.0266 µg/mL
concentration at 1 h [1, 3]: 0.0756 ± 0.035 µg/mL
concentration at 2 h [1, 3]: 0.0212 ± 0.0125 µg/mL
concentration at 3 h [1, 3]: 0.0129 ± 0.0043 µg/mL
concentration at 4 h [1, 3]: 0.0095 ± 0.0031 µg/mL
concentration at 5 h [1, 3]: 0.0037 ± 0.0063 µg/mL
concentration at 6 h [1, 3]: 0.0017 ± 0.0027 µg/mL
concentration at 0 h [1, 4]: 0 µg/mL
concentration at 0.25 h [1, 4]: 0.0752 ± 0.0303 µg/mL
concentration at 0.5 h [1, 4]: 0.0551 ± 0.0155 µg/mL
concentration at 1 h [1, 4]: 0.0187 ± 0.0059 µg/mL
concentration at 2 h [1, 4]: 0.0032 ± 0.0006 µg/mL
concentration at 3 h [1, 4]: 0.0015 ± 0.0009 µg/mL
concentration at 4 h [1, 4]: 0.0016 ± 0.0007 µg/mL
concentration at 5 h [1, 4]: 0 µg/mL
concentration at 6 h [1, 4]: 0 µg/mL
Tmax ([1]; male, Sprague Dawley, rat, plasma, intraduodenal 10 mg/kg, unchanged with or without enzyme): 30 min
AUC average ± standard deviation 0 to 6 hours [1, 5]: 0.1774 ± 0.0553 µg·h/mL
Cmax average ± standard deviation [1, 5]: 0.1294 ± 0.0411 µg/mL
AUC average ± standard deviation 0 to 6 hours [1, 6]: 0.0603 ± 0.0178 µg·h/mL
Cmax average ± standard deviation [1, 6]: 0.076 ± 0.029 µg/mL
AUC ([2]; rats N=6, Compound 1 10 mg/kg intracolonic with β-glucuronidase, read-out: AUC average ± standard deviation 0 to 6 hours): 0.0095 ± 0.0025 µg·h/mL
Cmax [2, 7]: 0.004 ± 0.0006 µg/mL
AUC ([2]; rats N=6, Compound 1 10 mg/kg intracolonic without enzyme, read-out: AUC average ± standard deviation 0 to 6 hours): 0.0155 ± 0.0249 µg·h/mL
Cmax [2, 8]: 0.0095 ± 0.0179 µg/mL
AUC ([2]; with and without β-glucuronidase, read-out: AUC of parent after intracolonic administration): < 0.016 µg·h/mL
concentration at 0 h [2, 7]: 0 µg/mL
concentration at 0.25 h [2, 7]: 0.129 ± 0.0414 µg/mL
concentration at 0.5 h [2, 7]: 0.107 ± 0.0266 µg/mL
concentration at 1 h [2, 7]: 0.0756 ± 0.035 µg/mL
concentration at 2 h [2, 7]: 0.0212 ± 0.0125 µg/mL
concentration at 3 h [2, 7]: 0.0129 ± 0.0043 µg/mL
concentration at 4 h [2, 7]: 0.0095 ± 0.0031 µg/mL
concentration at 5 h [2, 7]: 0.0037 ± 0.0063 µg/mL
concentration at 6 h [2, 7]: 0.0017 ± 0.0027 µg/mL
concentration at 0 h [2, 8]: 0 µg/mL
concentration at 0.25 h [2, 8]: 0.0064 ± 0.0115 µg/mL
concentration at 0.5 h [2, 8]: 0.008 ± 0.0157 µg/mL
concentration at 1 h [2, 8]: 0.0087 ± 0.0182 µg/mL
concentration at 2 h [2, 8]: 0.002 ± 0.0031 µg/mL
concentration at 3 h [2, 8]: 0.0011 ± 0.0027 µg/mL
concentration at 4 h [2, 8]: 0 µg/mL
concentration at 5 h [2, 8]: 0 µg/mL
concentration at 6 h [2, 8]: 0 µg/mL
SMILES: COc1cc2c(cc1OC)-c1n[nH]c(Nc3cccc(F)c3)c1C2 [Compound 1, (6,7-dimethoxy-2,4-dihydro-indeno[1,2-c]pyrazol-3-yl)-(3-fluoro-phenyl)-amine]
